Usually pKa stands for the negative logarithm of the acid dissociation constant. As usually defined, the AUC(0-inf) is total exposure, with the tail of the curve extrapolated. A high value points to high exposure. What is called AUC(0-t) is the area under the concentration-time curve up to a stated or last time point. A low value points to less exposure. The Cmax is the highest concentration seen after dosing. As a reminder, the MRT is the average time that molecules of a dose stay in the body.

Read-outs that look alike come from different tables or passages of the source.

The values that follow come from paper PMC6278556, “An Accurate and Effective Method for Measuring Osimertinib by UPLC-TOF-MS and Its Pharmacokinetic Study in Rats” (Molecules, 2018).

The nature of data set [1]: Stability of osimertinib in rat plasma under various storage conditions. The format is in vitro ADME. The protocol: The stabilities of this method, which include the freeze–thaw stability, autosampler stability, short-term stability and long-term stability, were evaluated through three QC samples after the sample preparation method. […] In addition, the long-term stability was evaluated through the determination of three QC samples that were kept at −80 °C for 30 days. All samples were considered stable with RSDs < ±15%.

The conditions of data set [2]: stated without source; cited from earlier work.
A short description of data set [3]: Pharmacokinetic study in SD rats after oral administration. The note with it: n = 7, mean ± SD, non-compartmental. The format is in vivo. On the procedure:
The pharmacokinetic study of osimertinib was applied to seven male SD rats using oral administration by gavage and the dosage was 4.5 mg/kg. Osimertinib was diluted and suspended by 0.5% sodium carboxymethylcellulose. No less than 0.3 mL rat plasma was sampled at 0, 1, 2, 3, 4, 5, 6, 7, 8, 10, 12, 24, 36, and 48 h after oral administration through the oculi chorioideae vein under the condition of light ether anesthesia. After 10 min centrifuging of all analytes at 5000× g, the supernatant was collected and frozen at −40 °C until analysis. The use of animals in the presented study was permitted by the Ethics Committee of the Hebei Medical University, and all animal studies were carried out according to the Guidance for the Care and Use of Laboratory Animals of the US National Institute of Health.
Ten microliters of IS solution (500 ng/mL) was prepared in 100 μL rat plasma and vortex-mixed for 20 s. After that step, 500 μL of acetonitrile was added to precipitate the protein. Then, the mixture was vortexed for 1 min and centrifuged at 12,000 rpm for 10 min. The supernatant was transferred into a new Eppendorf tube and evaporated to dryness through nitrogen gas at 45 °C. After 100 μL of acetonitrile was added to reconstitute the residue and vortexed for 1 min, all samples were centrifuged at 12,000× g for 10 min. Finally, 80 μL of the supernatant was collected and injected into UPLC sample vials before use.
Dynamic background subtraction is a novel technique performed using the Analyst software (AB Sciex, Foster City, CA, USA). In addition, the data of the pharmacokinetic study of osimertinib were collected and calculated by the DAS 2.1.1 software in the non-compartmental mode (Mathematical Pharmacology Professional Committee of China, Shanghai, China).

Setting [4] is: Sprague-Dawley (SD), rat, plasma, male SD rats, oral 4.5 mg/kg.

On to `C=CC(=O)Nc1cc(Nc2nccc(-c3cn(C)c4ccccc34)n2)c(OC)cc1N(C)CCN(C)C` [Osimertinib, N-(2-{2dimethylaminoethyl-methylamino}-4-methoxy-5-{[4-(1-methylindol-3-yl)pyrimidin-2yl]amino}phenyl)prop-2-enamide], for which the Stability in words result in data set [1] (plasma samples, storage temperature (−80 °C) for at least 30 days) is “stable”; in data set [1] (rat plasma, autosampler temperature (4 °C) for 24 h) it was “good stability”; in data set [1] (rat plasma, room temperature (25 °C) for 24 h), “good stability”; in data set [1] (rat plasma, three freeze (−80 °C) and thaw (0 °C) cycles), “remained stable”. Besides, the pKa in data set [2] is 13.64. The same molecule gave an AUC(0-inf) in data set [3] (setting [4]) of 426 ± 81.7 ng·h/mL. In data set [3] (setting [4]), this molecule had an AUC(0-t) of 382 ± 69 ng·h/mL. This molecule also had a Cmax in data set [3] (setting [4]) of 28.5 ± 3.97 ng/mL. The molecule also registered an MRT in data set [3] (setting [4]) of 14.5 ± 1.91 h. The Vd/F in data set [3] (Sprague-Dawley (SD), rat, plasma, male SD rats, oral 4.5 mg/kg, read-out: Vz/F (distribution volume)) was 234 ± 66.7 L/kg. For the same molecule, the half-life in data set [3] (Sprague-Dawley (SD), rat, plasma, male SD rats, oral 4.5 mg/kg, read-out: t1/2z (terminal half-life) (converted)) is 15 ± 3.44 h. In data set [3] (male SD rats, oral 4.5 mg/kg), the “CLz/F (clearance)” value was 180.7 ± 32.3 mL/min/kg. Moreover, the tmax is 4.80 ± 1.10 h in data set [3] (male SD rats, oral 4.5 mg/kg, 4.5 mg/kg) and 4.5 h in data set [3] (male, Sprague-Dawley (SD), rat, plasma, po, 4.5 mg/kg, read-out: tmax). Moreover, the CL/F in data set [3] (male, Sprague-Dawley (SD), rat, plasma, po, 4.5 mg/kg, read-out: CLz/F (clearance) (converted)) is around 181 mL/min/kg.
